Consider 1 compound from patent US12268676B2, “Antiviral applications of picolinic acid and its derivatives” (INDIAN INSTITUTE OF SCIENCE, priority 2021, dated 2025).

This assay relates to SARS-CoV-2 variants of concern (Alpha, Beta, Gamma, Delta). In kind it is cell-based.

Regarding `O=C(O)c1ccccn1` [PA, pyridine-2-carboxylic acid], the “viral load abrogated by” value is given as about 1 log.
